According to ChEMBL document CHEMBL1201862, “PubChem BioAssay data set” (2004):
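A five-concentration, 48-hour dose response in 96-well plates underlies each endpoint, interpolated linearly between surrounding concentrations. Here, GI50 denotes the concentration required for 50% inhibition of growth.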 The source made the active and inactive calls. No stated cut-off is given here; in the data, active = GI50 up to about 1.1 µM and inactive = higher.

Key:
Test in all cases: DTP human tumour cell line panel, 48 h
TK-10 = system: TK-10
MCF7 = system: MCF7
SF-539 = system: SF-539
CCRF-CEM = system: CCRF-CEM
U-251 = system: U-251
UACC-257 = system: UACC-257
SF-295 = system: SF-295
CAKI-1 = system: CAKI-1
786-0 = system: 786-0
RPMI-8226 = system: RPMI-8226
MDA-MB-435 = system: MDA-MB-435
SNB-75 = system: SNB-75
SK-MEL-28 = system: SK-MEL-28
COLO 205 = system: COLO 205
BT-549 = system: BT-549
HOP-92 = system: HOP-92
NCI/ADR-RES = system: NCI/ADR-RES
HT-29 = system: HT-29
SK-MEL-2 = system: SK-MEL-2
SR = system: SR
HCT-15 = system: HCT-15
OVCAR-4 = system: OVCAR-4
NCI-H23 = system: NCI-H23
SNB-19 = system: SNB-19
OVCAR-3 = system: OVCAR-3
IGROV-1 = system: IGROV-1
HCC 2998 = system: HCC 2998
KM12 = system: KM12
T47D = system: T47D
LOX IMVI = system: LOX IMVI
SW-620 = system: SW-620
UO-31 = system: UO-31
HL-60 = system: HL-60
DU-145 = system: DU-145
A549 = system: A549
OVCAR-8 = system: OVCAR-8
SK-OV-3 = system: SK-OV-3
HCT-116 = system: HCT-116
K562 = system: K562
SK-MEL-5 = system: SK-MEL-5
SF-268 = system: SF-268
OVCAR-5 = system: OVCAR-5
EKVX = system: EKVX
A498 = system: A498
Hs-578T = system: Hs-578T
HOP-62 = system: HOP-62
NCI-H226 = system: NCI-H226
M14 = system: M14
MDA-MB-231 = system: MDA-MB-231
NCI-H522 = system: NCI-H522
SN12C = system: SN12C
Malme-3M = system: Malme-3M
PC-3 = system: PC-3
NCI-H460 = system: NCI-H460
UACC-62 = system: UACC-62
MDA-N = system: MDA-N
ACHN = system: ACHN
RXF 393 = system: RXF 393
MOLT-4 = system: MOLT-4

O=[N+]([O-])C(=C(\Cl)NCCO)/C(Cl)=C(/Cl)Br
GI50 (TK-10): 2160 nM (inactive) | GI50 (MCF7): 716 nM (active) | GI50 (SF-539): 2340 nM (inactive) | GI50 (CCRF-CEM): 323 nM (active) | GI50 (U-251): 2040 nM (inactive) | GI50 (UACC-257): 1870 nM (inactive) | GI50 (SF-295): 12100 nM (inactive) | GI50 (CAKI-1): 558 nM (active) | GI50 (786-0): 1190 nM (inactive) | GI50 (RPMI-8226): 1480 nM (inactive) | GI50 (MDA-MB-435): 1300 nM (inactive) | GI50 (SNB-75): 3370 nM (inactive) | GI50 (SK-MEL-28): 2100 nM (inactive) | GI50 (COLO 205): 1380 nM (inactive) | GI50 (BT-549): 1770 nM (inactive) | GI50 (HOP-92): 1560 nM (inactive) | GI50 (NCI/ADR-RES): 2340 nM (inactive) | GI50 (HT-29): 1830 nM (inactive) | GI50 (SK-MEL-2): 1030 nM (active) | GI50 (SR): 1110 nM (active) | GI50 (HCT-15): 1320 nM | GI50 (OVCAR-4): 716 nM (active) | GI50 (NCI-H23): 2900 nM (inactive) | GI50 (SNB-19): 6700 nM (inactive) | GI50 (OVCAR-3): 1320 nM (inactive) | GI50 (IGROV-1): 2770 nM (inactive) | GI50 (HCC 2998): 3330 nM (inactive) | GI50 (KM12): 5570 nM (inactive) | GI50 (T47D): 1740 nM (inactive) | GI50 (LOX IMVI): 885 nM (active) | GI50 (SW-620): 1170 nM (inactive) | GI50 (UO-31): 2790 nM (inactive) | GI50 (HL-60): 791 nM (active) | GI50 (DU-145): 7740 nM (inactive) | GI50 (A549): 7910 nM (inactive) | GI50 (OVCAR-8): 1870 nM (inactive) | GI50 (SK-OV-3): 15000 nM (inactive) | GI50 (HCT-116): 1610 nM (inactive) | GI50 (K562): 665 nM (active) | GI50 (SK-MEL-5): 2440 nM (inactive) | GI50 (SF-268): 1620 nM (inactive) | GI50 (OVCAR-5): 4000 nM (inactive) | GI50 (EKVX): 4850 nM (inactive) | GI50 (A498): 4660 nM (inactive) | GI50 (Hs-578T): 6000 nM (inactive) | GI50 (HOP-62): 10800 nM (inactive) | GI50 (NCI-H226): 6730 nM (inactive) | GI50 (M14): 1570 nM (inactive) | GI50 (MDA-MB-231): 1740 nM (inactive) | GI50 (NCI-H522): 1100 nM (active) | GI50 (SN12C): 1980 nM (inactive) | GI50 (Malme-3M): 1620 nM (inactive) | GI50 (PC-3): 2620 nM (inactive) | GI50 (NCI-H460): 2700 nM (inactive) | GI50 (UACC-62): 1750 nM (inactive) | GI50 (MDA-N): 1830 nM (inactive) | GI50 (ACHN): 2750 nM (inactive) | GI50 (RXF 393): 2600 nM (inactive) | GI50 (MOLT-4): 481 nM (active)
